Results as given in patent US8796249B2, “TGR5 modulators and methods of use thereof” (Intercept Pharmaceuticals, Inc., priority 2008, dated 2014).
Where a name gives a salt, the structure may show the parent alone. Read-outs that look alike come from different tables or passages of the source.

What was measured:
[1] = target: T1, hFXR (Homo sapiens, UniProt Q96RI1); experiment: Alphascreen coactivator recruitment assay on hFXR; format: biochemical
T1 sequence (Q96RI1 1-486): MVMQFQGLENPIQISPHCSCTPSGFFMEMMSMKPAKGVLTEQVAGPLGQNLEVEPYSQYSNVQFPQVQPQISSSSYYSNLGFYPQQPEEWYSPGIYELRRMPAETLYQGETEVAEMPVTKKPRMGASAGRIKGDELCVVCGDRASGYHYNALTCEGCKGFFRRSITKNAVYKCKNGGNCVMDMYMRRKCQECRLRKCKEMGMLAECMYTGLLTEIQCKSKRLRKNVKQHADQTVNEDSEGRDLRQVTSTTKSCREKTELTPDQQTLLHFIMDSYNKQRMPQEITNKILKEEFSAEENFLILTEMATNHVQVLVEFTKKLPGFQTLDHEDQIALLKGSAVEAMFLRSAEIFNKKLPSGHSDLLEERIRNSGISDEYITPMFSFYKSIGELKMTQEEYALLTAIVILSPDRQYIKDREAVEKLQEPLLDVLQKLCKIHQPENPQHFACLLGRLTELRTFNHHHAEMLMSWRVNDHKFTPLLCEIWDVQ
Description: (§1) The selectivity of compounds of the invention was evaluated using assay methods known in the art. Specifically, the following assay methods were used: • FXR and LXR: Coactivator Recruitment (alphascreen); • TGR5: cAMP level on human intestinal cell line (NCI-H716); • PXR: Ligands Competition assay (Binding Assay) • CAR: Coactivator Recruitment (Lanthascreen)

[2] = target: T2, hTGR5 (Homo sapiens, UniProt Q8TDU6); experiment: FRET (cAMP) level in NCI-H716 human intestinal cell line; format: cell-based
T2 sequence (Q8TDU6 1-330): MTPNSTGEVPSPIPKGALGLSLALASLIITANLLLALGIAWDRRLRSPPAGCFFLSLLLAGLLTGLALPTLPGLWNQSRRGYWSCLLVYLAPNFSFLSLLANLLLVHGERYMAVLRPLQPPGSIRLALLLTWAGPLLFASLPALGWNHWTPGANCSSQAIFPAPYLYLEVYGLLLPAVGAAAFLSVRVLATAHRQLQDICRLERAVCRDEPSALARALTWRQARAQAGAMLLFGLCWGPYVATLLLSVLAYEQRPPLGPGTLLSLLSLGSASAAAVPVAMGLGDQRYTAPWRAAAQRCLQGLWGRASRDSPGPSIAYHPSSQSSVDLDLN
Description: EC50 values were determined by probit analysis.
as §1

[3] = target: T3, LXRα (Homo sapiens, UniProt Q13133); experiment: LXR coactivator recruitment (alphascreen); format: biochemical; conditions: ref standard T0901317
T3 sequence (Q13133 1-447): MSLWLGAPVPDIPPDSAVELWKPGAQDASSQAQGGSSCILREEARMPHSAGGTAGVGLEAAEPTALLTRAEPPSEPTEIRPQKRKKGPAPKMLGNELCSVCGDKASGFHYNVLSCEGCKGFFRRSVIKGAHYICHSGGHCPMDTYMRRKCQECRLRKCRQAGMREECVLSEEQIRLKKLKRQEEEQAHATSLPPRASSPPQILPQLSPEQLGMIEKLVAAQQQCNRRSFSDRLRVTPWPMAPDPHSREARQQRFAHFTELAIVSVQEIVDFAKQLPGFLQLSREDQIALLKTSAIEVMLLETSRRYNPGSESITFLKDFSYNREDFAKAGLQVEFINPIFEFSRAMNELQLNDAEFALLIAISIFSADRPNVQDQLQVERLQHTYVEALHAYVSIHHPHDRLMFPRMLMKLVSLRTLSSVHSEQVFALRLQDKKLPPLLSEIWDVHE
Description: as §1

[4] = target: T4, CAR (Homo sapiens, UniProt Q14994); experiment: CAR coactivator recruitment (Lanthascreen); format: biochemical
T4 sequence (Q14994 1-352): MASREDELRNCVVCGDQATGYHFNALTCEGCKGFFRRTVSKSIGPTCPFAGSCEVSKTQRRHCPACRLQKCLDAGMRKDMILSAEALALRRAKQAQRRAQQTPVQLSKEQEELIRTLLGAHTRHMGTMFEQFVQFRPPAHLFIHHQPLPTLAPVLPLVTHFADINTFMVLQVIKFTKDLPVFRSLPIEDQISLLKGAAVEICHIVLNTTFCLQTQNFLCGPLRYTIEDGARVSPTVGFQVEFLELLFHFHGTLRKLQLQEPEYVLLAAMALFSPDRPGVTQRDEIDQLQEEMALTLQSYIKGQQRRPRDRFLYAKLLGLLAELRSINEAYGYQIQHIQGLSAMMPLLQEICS
Description: as §1

[5] = target: T5, PPARδ (Homo sapiens, UniProt Q03181); experiment: NR selectivity assay PPARδ; conditions: unnamed ref standard 0.004 μM
T5 sequence (Q03181 1-441): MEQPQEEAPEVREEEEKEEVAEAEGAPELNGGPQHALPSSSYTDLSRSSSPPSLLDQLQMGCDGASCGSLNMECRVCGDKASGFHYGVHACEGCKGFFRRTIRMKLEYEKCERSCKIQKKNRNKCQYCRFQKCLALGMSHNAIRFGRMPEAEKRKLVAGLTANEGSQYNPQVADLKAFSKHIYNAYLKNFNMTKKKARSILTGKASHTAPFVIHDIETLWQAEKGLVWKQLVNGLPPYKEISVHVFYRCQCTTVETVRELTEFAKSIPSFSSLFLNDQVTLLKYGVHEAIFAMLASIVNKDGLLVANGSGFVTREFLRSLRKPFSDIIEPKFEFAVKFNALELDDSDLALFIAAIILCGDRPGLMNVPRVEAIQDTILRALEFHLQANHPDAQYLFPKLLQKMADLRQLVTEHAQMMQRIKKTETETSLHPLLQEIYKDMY

[6] = Water solubility; format: physicochemical; conditions: for Ws (water solubility): BA as protonated species, 0.1 M HCl, pH 1, hs = highly soluble, not evaluated; for solubility in biological fluids: ionized even at low pH, physiological conditions
Description: Solid compound (BA) was suspended in 5 ml of 0.1 M HCl. […] The flow rate was 150 μl/min. The mass spectrometry acquisition was performed in the multiple reaction monitoring mode using the ESI source in negative ionization. Water solubility was expressed as μmol/liter.
The water solubility was measured for the insoluble protonated species of carboxylated bile acids at a pH 1.

[7] = tested on: Intestinal Bacteria; experiment: In vitro metabolic stability in human stool culture; conditions: human stool culture
Description: Homogenized fresh human stools (500 mg) were transferred into sterile vials to which 5 mL of sterilized chopped meat-glucose medium (Scott Lab., Fiskville, R.I.) was added. BA were then added at a final concentration of 0.05 mM. Vials were incubated at 37° C.; then, at 0, 1, 2, 4, 8 and 24 h after the addition of the BA, the reaction was stopped with 150 μL of 30% KOH. The samples were centrifuged at 3500 rpm for 10 min; from the supernatant the BA were isolated by C-18 solid-phase extraction and analyzed by TLC and HPLC-ES-MS/MS.
Thin-layer chromatography (TLC), utilizing silica gel 0.25 mm thickness plates (Merck, Darmstat, Germany), was employed as the first screening test. The solvent system used for the separation of conjugated BA was composed of propionic acid/isoamyl acetate/water/N-propanol (3:4:1:2, v/v/v/v; solvent I), and that of the unconjugated BA was acetic acid/carbon tetrachloride/isopropyl ether/isoamyl acetate/water/N-propanol/benzene (1:4:6:8:2:2, v/v/v/v/v/v; solvent II).

[8] = NR selectivity table, coactivator recruitment (alphascreen), ref standard CDCA, read-out: FXR EC50
[9] = Table 1, reference standard CDCA, read-out: Alphascreen Assay hFXR EC50

Compound | EC50 [1, 8] [nM] | EC50 [1, 9] [nM] | EC50 [2] [nM] | LXRα EC50 [3] | EC50 [4] [nM] | PPARδ EC50 [5] | Ws (water solubility) [6] | solubility in biological fluids [6] | side chain stability [7]
CCC1C(O)C2C3CCC(C(C)CC(C)OS(=O)(=O)O)C3(C)CCC2C2(C)CCC(O)CC12 [Compound 2A, 3α,7α,23-trihydroxy-6α-ethyl-23(S)-methyl-24-nor-5β-cholan-23-sulfate Sodium Salt] | 140 | 145 ± 50 | 1600 ± 300 | No | 84000 | No | hs | always soluble in all biological fluids | quite stable
CC[C@H]1[C@@H](O)[C@@H]2[C@H](C[C@H](O)[C@]3(C)[C@@H]([C@H](C)CCCS(=O)(=O)[O-])CC[C@@H]23)[C@@]2(C)CC[C@@H](O)C[C@@H]12.[Na+] [Compound 3A, 3α,7α,12α-trihydroxy-6α-ethyl-5β-cholan-24-sulfonate Sodium Salt] | 7000 | 7000 ± 3000 | 700 ± 200 | No | > 250000 | No | hs | always soluble in all biological fluids | very stable
